Test results from patent US20240368131A1, “OXOINDOLINYL AMIDE DERIVATIVES FOR INHIBITING NLRP3 AND USES THEREOF” (VENTUS THERAPEUTICS U.S. INC., priority 2022, published 2024).
pIC50: −log10 of the molar value.

Assays:
human NLRP3 [1] = target: T1, human NLRP3 (Homo sapiens, UniProt Q96P20); assay: Human PBMC NLRP3 Assay (IL-1β release); type: cell-based; design: Human PBMCs (Normal): iXCells Cat #10HU-003; host or cells: human PBMCs (normal donors), LPS-primed, nigericin-stimulated; details: human PBMCs
T1 sequence (Q96P20 whole entry): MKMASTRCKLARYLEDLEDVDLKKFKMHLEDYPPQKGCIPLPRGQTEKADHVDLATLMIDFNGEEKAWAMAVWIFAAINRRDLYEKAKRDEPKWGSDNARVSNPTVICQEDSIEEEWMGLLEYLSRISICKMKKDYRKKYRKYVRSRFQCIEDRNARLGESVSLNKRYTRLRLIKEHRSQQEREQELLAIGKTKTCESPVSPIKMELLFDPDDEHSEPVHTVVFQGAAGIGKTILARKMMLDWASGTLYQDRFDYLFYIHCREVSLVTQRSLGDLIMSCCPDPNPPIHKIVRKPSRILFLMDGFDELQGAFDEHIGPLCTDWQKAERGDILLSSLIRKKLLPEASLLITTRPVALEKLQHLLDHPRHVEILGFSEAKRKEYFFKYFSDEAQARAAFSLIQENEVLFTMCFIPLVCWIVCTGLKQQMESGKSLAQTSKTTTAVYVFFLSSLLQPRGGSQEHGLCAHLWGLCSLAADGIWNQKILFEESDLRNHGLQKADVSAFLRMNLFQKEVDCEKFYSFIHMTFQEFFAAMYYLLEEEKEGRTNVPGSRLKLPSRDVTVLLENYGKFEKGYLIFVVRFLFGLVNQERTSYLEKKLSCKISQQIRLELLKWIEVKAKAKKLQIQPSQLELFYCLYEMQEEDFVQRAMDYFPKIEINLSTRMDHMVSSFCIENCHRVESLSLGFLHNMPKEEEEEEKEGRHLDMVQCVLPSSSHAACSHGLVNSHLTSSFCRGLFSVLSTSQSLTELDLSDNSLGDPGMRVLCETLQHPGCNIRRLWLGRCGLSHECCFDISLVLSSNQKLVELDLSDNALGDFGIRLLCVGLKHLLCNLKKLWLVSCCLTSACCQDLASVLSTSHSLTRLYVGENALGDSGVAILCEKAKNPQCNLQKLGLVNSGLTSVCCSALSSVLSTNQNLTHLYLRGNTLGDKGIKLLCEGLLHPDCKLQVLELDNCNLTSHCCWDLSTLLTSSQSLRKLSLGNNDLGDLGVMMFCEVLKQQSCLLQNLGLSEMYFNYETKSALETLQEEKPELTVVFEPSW
Protocol: Reagents: Human PBMCs (Normal): iXCells Cat #10HU-003; RPMI 1640 medium (ATCC modification): ThermoFisher Cat #A1049101 (Complete Media: 10% FBS, 1% Pen/Strep; Assay Media: 1% Pen/Strep; 75 cm^2 cell culture flask: Corning Cat #430641U; 96-well cell culture plates: VWR Cat #10062-900; LPS (E. coli 026:B6): Sigma Cat #L2654, stock 5 mg/mL in PBS; Nigericin sodium salt: Sigma Cat #N7143, stock 5 mg/mL (6.7 mM) in ethanol.
Cryopreserved PBMCs (10×10^6 cells/vial) were rapidly thawed in a 37° C. water bath for 2 min and transferred in 10 mL Complete Media. Cells were then centrifuged at 1200 RPM for 5 min, resuspended in 40 mL of Complete Media, transferred in a 75 cm^2 cell culture flask and incubated overnight at 37° C. with 5% CO2. The next day, PBMCs were centrifuged, resuspended in 30 mL Assay Media (˜3.3×10^5 cells/mL) and distributed at 100 μL/well in a 96-well cell culture plate. 50 μl of Assay Media containing 300 ng/ml of LPS was then added to each well except for the untreated control wells (50 μl Assay Media without LPS). Cells were then primed with LPS for 4 h at 37° C. with 5% CO2. A concentration response curve (CRC) was prepared of 500× test compound in 100% dimethyl sulfoxide (DMSO). The CRC was then diluted 1:25 in Assay Media and then further diluted 1:5 in Assay Media resulting in a final 4× CRC in 0.8% DMSO/Assay Media. 50 μL/well of 4× test compound CRC or vehicle (0.8% DMSO/Assay Media) was then transferred into each well and subsequently incubated for 30 min at 37° C. with 5% CO2. Cells were stimulated by adding 4 μL of 500 μM Nigericin, for 1 h at 37° C. with 5% CO2 Plates were then centrifuged at 1200 RPM for 5 min and 100 μl of the media was transferred to a clean 96-well storage plate and stored at −80° C. until analyzed. Cytokine measurements were performed using the mesoscale platform. Compounds were added 30 minutes before priming the cells with LPS when TNFα was required to be quantified in the cytokine panel to confirm selectivity.
Human PBMC NLRP3 Assay: A represents an IC50 value <0.3 μM; B represents an IC50 value ≥0.3 μM and <0.5 μM; C represents an IC50 value ≥0.5 μM and <1.0 μM; D represents an IC50 value >1.0 μM and <10 μM; E represents an IC50 value >10 μM.

human NLRP3 [2] = target: T1, human NLRP3; assay: Human Whole Blood (hWB) NLRP3 Assay (IL-1β MSD); type: cell-based; details: LPS 1 μg/ml 4.5 h, ATP 30 min, class symbols
Protocol: Human whole blood was drawn from healthy volunteers after obtaining written informed consent. Heparin lithium coated tubes were used to collect blood from volunteers. Blood samples were distributed on 96 well plates using 90 μl per well. Priming was performed by adding 5 μl of LPS (O26:B6; Sigma L-2654) at a final concentration of 1 μg/ml for 4.5 hours in a humidified incubator with 37° C., 5% CO2. Thirty minutes prior to NLRP3 activation, 5 μl of a 20× compound solution or vehicle (2% DMSO) was added to each well and plates were incubated on a shaker (450 rpm) in a humidified incubator with 37° C., 5% CO2. Activation was then performed by adding 3.3 μl of a 31× ATP solution per well. At the end of the 30 minutes stimulation, the plates were centrifuged (800 g, 10 min, room temperature) and the plasma from each well was frozen at −80° C. IL-1β levels in the supernatant were analyzed using a mesoscale discovery assay (MSD K151TUK) according to the manufacturers' instructions.
hWB IL-1β Assay: A represents an IC50 value <0.3 μM; B represents an IC50 value ≥0.3 μM and <0.5 μM; C represents an IC50 value ≥0.5 μM and <1.0 μM; D represents an IC50 value >1.0 μM.

[3] = LPS priming 4 h, nigericin stimulation 1 h, class symbols
[4] = LPS priming, nigericin stimulation, numeric values of Tables C1-C4

SMILES	pIC50 (human NLRP3 [1]; [3])	pIC50 (human NLRP3 [2])	pIC50 (human NLRP3 [1]; [4])
C[C@@H](CNC(=O)CN1C(=O)C(C)(C)c2cc(Br)cc(O)c21)CC(=O)O (single isomer, unassigned) [42A*]	> 6.52		
C[C@H](CNC(=O)CN1C(=O)C(C)(C)c2cc(Br)cc(O)c21)CC(=O)O (single isomer, unassigned) [42B*]	> 6.52		
CC1(C)C(=O)N(CC(=O)N[C@@H]2CCC[C@@H]2C(=O)O)c2ccc(Br)cc21 (single isomer, unassigned) [52A*]	< 5.00		
C[C@H](NC(=O)CN1C(=O)C(C)(C)c2c(F)c(C(F)(F)F)cc(F)c21)[C@@H](C)CC(=O)O (single isomer, unassigned) [67C*]		< 6.00	
C[C@H](CC(=O)O)[C@@H](C)NC(=O)CN1C(=O)C(C)(C)c2c(F)c(C(F)(F)F)cc(F)c21 (single isomer, unassigned) [67D*]		6.30 to 6.52	
O=C(O)CCCNC(=O)Cn1ccc2ccccc21 [COMPARATIVE EXAMPLE 1, 4-(2-(1H-indol-1-yl)acetamido)butanoic acid, reference compound]			< 4.00
O=C(O)CCCNC(=O)Cn1ccc2cc(Br)ccc21 [COMPARATIVE EXAMPLE 2, 4-(2-(5-bromo-1H-indol-1-yl)acetamido)butanoic acid, reference compound]			5.14
O=C(O)CCCNC(=O)CN1C(=O)Cc2cc(Br)ccc21 [COMPARATIVE EXAMPLE 3, 4-(2-(5-bromo-2-oxoindolin-1-yl)acetamido)butanoic acid, reference compound]			4.33
O=C(O)CCCNC(=O)CN1C(=O)C(=O)c2cc(Br)ccc21 [COMPARATIVE EXAMPLE 4, 4-(2-(5-bromo-2,3-dioxoindolin-1-yl)acetamido)butanoic acid, reference compound]			< 4.00
O=C(O)CCNC(=O)Cn1ccc2cc(Br)ccc21 [COMPARATIVE EXAMPLE 5, 3-(2-(5-bromo-1H-indol-1-yl)acetamido)propanoic acid, reference compound]			< 4.00
CC1(C)C(=O)N(CC(=O)NCCCc2nnc[nH]2)c2c(F)cc(C3CC3)c(F)c21 [COMPARATIVE EXAMPLE 6, N-(3-(4H-1,2,4-triazol-3-yl)propyl)-2-(5-cyclopropyl-4,7-difluoro-3,3-dimethyl-2-oxoindolin-1-yl)acetamide, reference compound]			6.03
CC1(C)C(=O)N(CC(=O)NCCCc2cn[nH]n2)c2c(F)cc(C3CC3)c(F)c21 [COMPARATIVE EXAMPLE 7, N-(3-(2H-1,2,3-triazol-4-yl)propyl)-2-(5-cyclopropyl-4,7-difluoro-3,3-dimethyl-2-oxoindolin-1-yl)acetamide, reference compound]			6.17
O=C(O)CCCNC(=O)CN1C(=O)C2(CCCC2)c2cc(Br)ccc21 [Compound 5, 4-(2-(5′-bromo-2′-oxospiro[cyclopentane-1,3′-indolin]-1′-yl)acetamido)butanoic acid]	< 5.00		
O=C(O)CCCNC(=O)CN1C(=O)C2(CC2)c2cc(Br)ccc21 [Compound 6, 4-(2-(5′-bromo-2′-oxospiro[cyclopropane-1,3′-indolin]-1′-yl)acetamido)butanoic acid]	6.00 to 6.30		6.24
Cc1ccc2c(c1)C(C)(C)C(=O)N2CC(=O)NCCCC(=O)O [Compound 7, 4-(2-(3,3,5-trimethyl-2-oxoindolin-1-yl)acetamido)butanoic acid]	5.00 to 6.00		
CC(C)(CCC(=O)O)NC(=O)CN1C(=O)C(C)(C)c2cc(C(F)(F)F)ccc21 [Compound 8, 4-(2-(3,3-dimethyl-2-oxo-5-(trifluoromethyl)indolin-1-yl)acetamido)-4-methylpentanoic acid]	6.00 to 6.30		6.16
CC(C)(CCC(=O)O)NC(=O)CN1C(=O)C(C)(C)c2cc(C3CC3)ccc21 [Compound 9, 4-(2-(5-cyclopropyl-3,3-dimethyl-2-oxoindolin-1-yl)acetamido)-4-methylpentanoic acid]	6.00 to 6.30		6.17
CC(C)c1ccc2c(c1)C(C)(C)C(=O)N2CC(=O)NC(C)(C)CCC(=O)O [Compound 10, 4-(2-(5-isopropyl-3,3-dimethyl-2-oxoindolin-1-yl)acetamido)-4-methylpentanoic acid]	6.30 to 6.52		
CC(C)(CNC(=O)CN1C(=O)C(C)(C)c2cc(Br)ccc21)CC(=O)O [Compound 13, 4-(2-(5-bromo-3,3-dimethyl-2-oxoindolin-1-yl)acetamido)-3,3-dimethylbutanoic acid]	> 6.52		6.96
CC(C)(CCNC(=O)CN1C(=O)C(C)(C)c2cc(Br)ccc21)C(=O)O [Compound 14, 4-(2-(5-bromo-3,3-dimethyl-2-oxoindolin-1-yl)acetamido)-2,2-dimethylbutanoic acid]	5.00 to 6.00		
CC1(C)C(=O)N(C2(C(=O)NCCCC(=O)O)CC2)c2ccc(Br)cc21 [Compound 15, 4-(1-(5-bromo-3,3-dimethyl-2-oxoindolin-1-yl)cyclopropane-1-carboxamido)butanoic acid]	< 5.00		
CC1(C)C(=O)N(CC(=O)NCCCC(=O)O)c2cc(F)c(Br)cc21 [Compound 20, 4-(2-(5-bromo-6-fluoro-3,3-dimethyl-2-oxoindolin-1-yl)acetamido)butanoic acid]	5.00 to 6.00		
CC1(C)C(=O)N(CC(=O)NCCCC(=O)O)c2ccc(C3CCCC3)cc21 [Compound 25, 4-(2-(5-cyclopentyl-3,3-dimethyl-2-oxoindolin-1-yl)acetamido)butanoic acid]	< 5.00		
COc1cc(Br)cc2c1N(CC(=O)NCCCC(=O)O)C(=O)C2(C)C [Compound 27, 4-(2-(5-bromo-7-methoxy-3,3-dimethyl-2-oxoindolin-1-yl)acetamido)butanoic acid]	< 5.00		
CC1(C)C(=O)N(CC(=O)NCCCC(=O)O)c2cc(O)c(Br)cc21 [Compound 36, 4-(2-(5-bromo-6-hydroxy-3,3-dimethyl-2-oxoindolin-1-yl)acetamido)butanoic acid]	< 5.00		
C[C@H](CCC(=O)O)NC(=O)CN1C(=O)C(C)(C)c2cc(Br)cc(O)c21 [Compound 41A, (R)-4-(2-(5-bromo-7-hydroxy-3,3-dimethyl-2-oxoindolin-1-yl)acetamido)pentanoic acid]	> 6.52		
CC1(C)C(=O)N(CC(=O)NC2(CCC(=O)O)CC2)c2c(O)cc(Br)cc21 [Compound 44, 3-(1-(2-(5-bromo-7-hydroxy-3,3-dimethyl-2-oxoindolin-1-yl)acetamido)cyclopropyl)propanoic acid]	> 6.52		
CC1(C)C(=O)N(CC(=O)NCc2ccccc2C(=O)O)c2ccc(Br)cc21 [Compound 49, 2-((2-(5-bromo-3,3-dimethyl-2-oxoindolin-1-yl)acetamido)methyl)benzoic acid]	< 5.00		
CC1(C)C(=O)N(CC(=O)NCCCC(=O)O)c2c(C(F)(F)F)cc(Br)cc21 [Compound 50, 4-(2-(5-bromo-3,3-dimethyl-2-oxo-7-(trifluoromethyl)indolin-1-yl)acetamido)butanoic acid]	< 5.00		
O=C(O)CCCNC(=O)CN1C(=O)C(F)(F)c2cc(Br)ccc21 [Compound 51, 4-(2-(5-bromo-3,3-difluoro-2-oxoindolin-1-yl)acetamido)butanoic acid]	6.30 to 6.52		6.39
